Source: patent publication US20230405134A1, “NOVEL PROTAC CHIMERIC COMPOUND, AND PHARMACEUTICAL COMPOSITION COMPRISING SAME FOR PREVENTING, AMELIORATING, OR TREATING DISEASES THROUGH TARGET PROTEIN DEGRADATION” (POSTECH RESEARCH AND BUSINESS DEVELOPMENT FOUNDATION, priority 2020, published 2023)
Where a SMILES comes first, the peptide text is derived from it. Bridges are numbered along the chain shown (N, C = ends). [ ]: non-standard residue; d: D form. Cha = N[C@@H](CC1CCCCC1)C(=O)O; S5 = C=CCCC[C@](C)(N)C(=O)O

Columns and labels:
[1] = system: MDA-MB-231 cells; experiment: Gap closure migration assay; format: cell-based, human; settings: 20 μM, 72 hours
Description: Based on the results that the SRC-1 degradation effectively affects the transcription mediated by SRC-1 (FIGS. 18A and 18B), it was predicted that ND1-YL2 would exert an inhibitory effect on downstream signaling pathways such as increased cancer cell migration and invasion. To test this, we first performed a gap closure migration assay using an invasive MDA-MB-231 cell line. MDA-MB-231 cells (70 μL of 4×10^5 cells/mL) were seeded in culture insert 2 wells (ibidi, 80209) pre-inserted into p-dishes (ibidi) under the conditions of 37° C. and 5% CO2. The culture insert 2 wells was gently removed with sterile tweezers. The cells were treated with DMSO, YL2 (20 […]), RLAA (20 μM) or ND1-YL2 (20 μM) in Opti-MEM medium for 72 hours. Images were obtained by a camera (Olympus) attached to an optical microscope. The cells were grown in the culture insert wells, and the inserts were removed to create intercellular gaps inside the wells. Subsequently, after treated with DMSO, YL2, RLAA peptide or ND1-YL2, the cells were cultured for 72 hours and the degree of cell migration was observed. The cell migration was quantified by analyzing the images of cells filling the gap.

[2] = target: T1, SRC-1/ND1-YL2/UBR box (UniProt P19812+Q15788); experiment: SEC-MALS ternary complex formation; format: binding; settings: SRC-1 alone 20 kDa, UBR box alone 12 kDa
T1 construct: PAS-B domain of human SRC-1 (residues 257-385) tagged with His6; UBR box (residues 113-194) in the UBR1 E3 ubiquitin ligase of S. cerevisiae; His6 (cleaved yes); made in house; host or cells: E. coli BL21 (DE3) pLysS (SRC-1 PAS-B)
T1 sequence (Q15788 257-385): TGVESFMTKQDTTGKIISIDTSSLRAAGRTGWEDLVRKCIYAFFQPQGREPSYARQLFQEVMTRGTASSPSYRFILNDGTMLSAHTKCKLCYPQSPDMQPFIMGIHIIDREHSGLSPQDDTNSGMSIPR
T1 sequence (P19812 113-194): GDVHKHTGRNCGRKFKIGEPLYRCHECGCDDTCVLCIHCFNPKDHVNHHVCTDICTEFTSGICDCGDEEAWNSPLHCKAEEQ
Description: An expression plasmid of the PAS-B domain of human SRC-1 (residues 257-385) tagged with His6 was provided by Professor John. A. Robinson. (ChemBioChem 2008, 9, 1318-1322). The plasmid was transformed into BL21 (DE3) pLysS cells, and the protein was cultured in Luria-Bertani broth medium and induced with 0.5 mM IPTG at 18° C. for 16 hours. Cell disruption was performed by ultrasonic treatment in a buffer (50 mM Tris-HCl pH 8.0, 200 mM NaCl and 1 mM TCEP), and insoluble materials were removed by centrifugation. HisTrap™ column (GE Healthcare, 17-5255-01) chromatography was performed on the buffer and 500 mM of imidazole was applied for elution. In order to remove the His6-tag, TEV protease was used and the cleaved samples were loaded in HisTrap™ as described above. The SRC-1 was further purified by size exclusion chromatography (HiLoad™ 16/600 Superdex 75 pg) in a final buffer of 20 mM Tris-HCl pH 7.5, 150 mM NaCl and 1 mM TCEP. […]
The next step was to confirm whether ND1-YL2 could indeed form a ternary complex. […] Light scattering and differential refractive index data were collected and analyzed using ASTRA®V software (Wyatt Technology) (FIG. 12A). The individual molecules SRC-1 and UBR box had molecular masses of 20 and 12 kDa, respectively, and were detected to be 40 kDa in the presence of ND1-YL2, which is a result showing that a ternary complex was formed (FIG. 12A).

[3] = system: Colo205; experiment: Cell viability assay; format: cell-based, human; settings: Colo205, various concentrations, 48 hours
Description: To further confirm the above results, an MTT cell viability assay was performed. MDA-MB-231 (1×10^4 cells/well), HEK293T (1×10^4 cells/well) and Colo205 (2×10^4 cells/well) cells were seeded in a 96-well plate, and cultured under the conditions of 37° C. and 5% carbon dioxide. After 24 hours, the cells were washed twice with DPBS and treated with DMSO or various concentrations of ND1-YL2 in Opti-MEM medium for 48 hours. Cell viability was measured by the Cyto X cell viability assay kit (LPS solution) according to the manufacturer's instructions.

[4] = system: E-cadherin; experiment: E-cadherin mRNA level by RT-qPCR in MDA-MB-231 cells; format: cell-based, human; settings: 12 hours
Excerpt: The pharmacological effects on SRC-1 dependent signal transmission were explored using the previously discovered SRC-1 degrading substance. The SRC-1 is overexpressed in various cancers and plays a pivotal role in increasing cell migration and invasion by regulating the expression of related genes. Therefore, when treated with ND1-YL2, an SRC-1 degrading substance, the expression of genes stimulated by SRC-1, such as colony stimulating factor-1 (CSF-1), a gene encoding the cytokine CSF-1 that induces cell differentiation and migration, will be suppressed. To confirm this, MDA-MB-231 cells were treated with DMSO and various concentrations of ND1-YL2, YL2 or N-degron tetrapeptide for 12 hours, and the mRNA level of CSF-1 was normalized to 18S level. Confirmation was made using quantitative real-time polymerase chain reaction (RT-qPCR). MDA-MB-231 cells were seeded at 2×10^5 cells per well. After 24 hours, compounds (YL2, RLAA or ND1-YL2) were treated in Opti-MEM medium for 12 hours. Subsequently, general mRNA isolation was performed using TRI reagent (Takara), and total mRNA was isolated from the cells. The absorbance of total mRNA was measured with a Tecan F200 Nanophotometer, and reverse transcription was performed using AccuPower RocketScript Cycle RT PreMix (Bioneer). Quantitative real-time PCR for CSF-1, E-Cadherin and 18S was performed using a StepOnePlus Real-Time PCR System and SYBR Green mix (Applied Biosystems) according to the manufacturer's manual.
In addition, the effect of the ND1-YL2 on the expression of E-cadherin, a tumor suppressor gene that plays an important role in cell-cell adhesion, was tested. Since SRC-1 protein is known to suppress the E-cadherin expression, the ND1-YL2 will upregulate the E-cadherin by degrading SRC-1.

CC(C)C[C@H](NC(=O)[C@H](C)NC(=O)[C@H](C)NC(=O)[C@H](C)NC(=O)[C@H](C)NC(=O)[C@H](CC(C)C)NC(=O)[C@@H](N)CCCNC(=N)N)C(=O)N[C@@H](CC(C)C)C(=O)N1CCC[C@H]1C(=O)N1CCC[C@H]1C(=O)N[C@H](C(=O)N[C@@H](CCC(=O)O)C(=O)N[C@@H](CCC(N)=O)C(=O)N[C@@H](CC(=O)O)C(=O)N[C@@H](CC(C)C)C(=O)N[C@@]1(C)CCC/C=C\CCC[C@@](C)(C(=O)N[C@@H](Cc2ccc(O)cc2)C(N)=O)NC(=O)[C@H](CC2CCCCC2)NC(=O)[C@H](CC(C)C)NC(=O)[C@H](CCCCN)NC1=O)[C@@H](C)O [ND1-YL2] (H-RLAAAALLPPTEQDL[S5]KL[Cha][S5]Y-NH2; staple (Z) 16-20)
Existing gaps maintained (cell migration) [1]: about 80%
Molecular mass detected for SRC-1 and UBR box in the presence of compound [2]: 40 kDa
Effect on cell survival [3]: did not significantly affect the survival
Effect on E-cadherin expression (mRNA) [4]: dose-dependent increase
